Patent US9907479B2, “Contribution of oxidative stress to AF electrograms” (NORTHWESTERN UNIVERSITY, priority 2013, dated 2018)

Legend:
AF EGMs in a RAP model = assay: Acute ROS blockade in rapid atrial pacing (RAP) persistent AF model, AF EGM mapping; type: in vivo, dog
Procedure: RAP: In 2 animals, rapid atrial pacing was performed at 600 bpm for 3-4 weeks to induce persistent AF. Apocynin was given as in HF above.

AF EGMs in HF [1] = assay: EGM-guided targeted gene injection at ROS responsive PLA quadrant in HF dog, AF EGM mapping; type: in vivo; settings: one HF dog, given during AF, 10 mg/kg, before gene injection
Procedure: In one dog, HF was induced by RV pacing at 240 bpm×3 weeks. AF was then induced and recorded in the PLA by high density epicardial plaques (130 electrodes; […]). […] Real time analysis of AF EGMs was performed. The PLA was divided into 4 equal quadrants as shown in FIG. 15A and AF characteristics analyzed for each quadrant. […] One week later, AF mapping was performed again, in the absence and presence of apocynin. […] NOX2 expression (assessed by RT-PCR) was 70% lower in the injected quadrant than in neighboring, un-injected PLA.

AF EGMs in HF [2] = assay: Acute ROS blockade during induced AF in pacing-induced HF dogs, epicardial AF EGM mapping; type: in vivo, dog; settings: for effect on AF EGM parameters (DF, OI, FI, ShEn): apocynin 10 mg/kg
Procedure: HF: In 4 animals, rapid RV pacing was performed at 240 beats/min for 3-4 weeks to induce HF. AF was then induced and AF EGMs recorded by an epicardial, multielectrode plaque (130 electrodes; […]). Apocynin (an NAPDH oxidase inhibitor) was then given (10 mg/kg) acutely. After apocynin administration, AF slowed and then terminated within 5 minutes (in every experiment). […] After apocynin washout (90 minutes), AF was re-induced and mito-TEMPO was given (0.7 mg/kg). […] The atrial tissue was then removed and examined for O^2- generation using lucigenin chemiluminescence. […] Thus, AF EGMs in HF are very sensitive to acute blockade of NADPH oxidase and mitochondrial ROS and AF EGM organization in response to ROS blockade closely correlates with the amount of O^2- in underlying tissue.

[3] = RAP dogs (600 bpm, 3-4 weeks), persistent AF, apocynin given as in HF
[4] = HF dogs, induced AF, mito-TEMPO 0.7 mg/kg

COc1cc(C(C)=O)ccc1O [apocynin, Apocynin]
change in DF (AF EGMs in a RAP model; [3]): significant decrease
change in OI (AF EGMs in a RAP model; [3]): increase
termination of AF (AF EGMs in a RAP model; RAP dogs, 2 animals): In one animal, there was termination of AF
effect on AF (AF EGMs in HF [1]): organization of AF followed by AF termination
time to AF termination after administration (AF EGMs in HF [2]; HF dogs (RV pacing 240 beats/min, 3-4 weeks), induced AF, 10 mg/kg given acutely, in every experiment): ≤ 5 min
effect on AF EGM parameters (DF, OI, FI, ShEn) (AF EGMs in HF [2]; [4]): organization of all AF EGM parameters

CC1(C)CC(NC(=O)C[P+](c2ccccc2)(c2ccccc2)c2ccccc2)CC(C)(C)N1[O] [mito-TEMPO]
effect on AF (slowing, termination) (AF EGMs in HF [2]; HF dogs, AF re-induced after apocynin washout (90 minutes), mito-TEMPO 0.7 mg/kg): gradual slowing and termination of AF in every animal
effect on AF EGM parameters (DF, OI, FI, ShEn) (AF EGMs in HF [2]; [4]): organization of all AF EGM parameters
